What was measured:
[1] = test system: bacteria from the nasal surface; assay: Growth of normal nasal flora from nasal swabs in M9 media; type: cell-based; conditions: M9 media with 100 mM xylitol, 72 hours at 37° C.
Procedure: FIGS. 5(A-G). Effect of xylitol on growth of different airway pathogens. A, B and C. Growth of P. aeruginosa (A), S. aureus, (B), and coagulase-negative Staphylococcus (C) were measured as O. D. M9 media alone is indicated by open triangle. Xylitol (closed circle), or succinate, mannitol, or sucrose (open circles), were added to M9 media at 100 mM as indicated. D. Nasal swabs were collected and cultured for 3 days in Lauria-Bertani media (open circles), in minimal M9 media (open squares), or in M9 media supplemented with 100 mM xylitol (closed circles). E, F and G. P. aeruginosa (E), S. aureus (F), and coagulase-negative Staphylococcus (G) were cultured in Lauria-Bertani media alone (open triangles), Lauria-Bertani media with 100 mM xylitol (closed circles), and Lauria-Bertani media containing tobramycin or levofloxacin (open circles).
To test the effect of xylitol on growth of normal nasal flora in a carbon-starved media, nasal swabs were obtained from 3 normal volunteers and the swabs were inoculated into M9 media alone, M9 with 100 mM xylitol, or Lauria-Bertani media. The media were incubated at 37° C. for 72 hours and the O.D. were recorded.
It was tested whether xylitol would support bacterial growth. P. aeruginosa were placed in M9 media, which lacks a carbon source. […] In contrast, there was no growth of P. aeruginosa when M9 media was supplemented with xylitol. […]

CF epithelia [2] = assay: ASL Cl- concentration and volume (isotope method); type: cell-based, human
Procedure: FIGS. 3(A-B). The effect of apical xylitol on non-CF and CF ASL Cl^− concentration and volume. Five μl of isosmotic xylitol or saline solution were applied to the apical surface. Twenty-four hours later, ASL Cl^− concentration (A) and volume (B) were determined. Asterisk indicates a difference between the saline and the xylitol solutions, p<0.05. N=15 to 18 from 3 CF and 3 non-CF specimens.
Airway epithelial cells were isolated from tracheal and bronchial tissue. […] All epithelia were evaluated with scanning electron microscopy for the development of a ciliated apical surface.
The ASL Cl^− concentration was measured as previously described (Zabner, J., J. J. Smith, P. H. Karp, J. H. Widdicombe, and M. J. Welsh. 1998. Loss of CFTR chloride channels alters salt absorption by cystic fibrosis airway epithelia in vitro. Mol. Cell. 2:397-403). […] The ratio of ^36Cl to ^3H2O was determined by liquid scintillation. […] From these measurements, it was determined the ^3H2O activity per μl of water and the cpm of ^36Cl per mole of Cl^− in the basolateral medium. ASL volume was calculated from the ASL ^3H2O collected divided by the ratio of ^3H2O activity per μl of basolateral medium. Chloride content was calculated from the ASL ^36Cl collected divided by the ratio of ^36Cl per mole of Cl^− in the basolateral medium ASL Cl^− concentration was calculated from the Cl^− content divided by the volume of ASL. […]

CF epithelia [3] = assay: Bacteria deposited into liquid covering CF epithelia; type: cell-based, human; conditions: bacteria grew on untreated or saline-treated epithelia

Structure (SMILES): OC[C@@H](O)[C@H](O)[C@@H](O)CO [xylitol]
- growth of bacteria from nasal swabs [1]: no growth
- estimated ASL volume (CF epithelia [2]; 24 hours after 5 μl apical): increased
- ASL Cl- concentration (CF epithelia [2]; 24 hours after 5 μl isosmotic xylitol solution apical): fell to values observed in non-CF epithelia
- fate of bacteria deposited into xylitol-containing liquid covering CF epithelia (CF epithelia [3]): the bacteria were killed

Reference: patent publication US6716819B2, “Use of xylitol to reduce ionic strength and activate endogenous antimicrobials for prevention and treatment of infections” (University of Iowa Research Foundation, priority 2000, dated 2004)
